In data set [1] the test system is HIV-1. The following applies: PBMCs of infected individuals treated ex vivo; 15d-PGJ2 at 5 μM; vs untreated cells.
Protocol: PBMCs were isolated from whole blood of HIV-1 infected individuals by Ficoll density gradients. […] Replication was evaluated by determining the p24 antigen concentration on culture supernatants by the ELISA method.
In data set [2] the test system is HIV-1. In words: Total virus challenge of MT4 cells, p24 antigen ELISA. In kind it is cell-based. Conditions: HIV-1 Bru, m.o.i. 0.01, 5-day incubation. Background: An ELISA detects its analyte on a solid surface through an enzyme-linked reagent.
The subject of data set [3] is vimentin protein. The following applies: Stamatakis et al. 2006; cited from earlier work.
For data set [4], the system named is cytoskeletal intermediate filaments (IFs). The experiment in a line: IFs structural analysis by transmission electron microscopy. In kind it is cell-based, human. Conditions: treated patients (two with SEQ ID No. 1, three with SEQ ID No. 2). The procedure:
Firstly, MT4vim(s), MT4K-10(s) and MT4 cells were fixed in 3.2% glutaraldehyde for 1 h at 4° C. and then fixed in 2% osmium tetroxide for 1 h at 4° C. They were subsequently washed with 0.1 M phosphate buffered saline (PBS), pH 7.2, and dehydrated at increasing ethanol concentrations (30, 50, 70 and 100%) for 10 min each at 4° C. Inclusion was carried out and ultrathin 40-50 nm-width sections were taken in an ultramicrotome (NOVA, LKB), which were placed on 400-orifices nickel trays. Once the ultrathin cuts were taken and placed on the trays, they were contrasted with saturated uranyl acetate and lead citrate, and further examined under a JEOL JEM 2000 EX (JEOL) microscope. Five microphotographs were analyzed at different magnifications. MT4 cell intact IFs are shown in FIG. 5A, meanwhile these structures appeared shortened in MT4vim(s) MT4K-10(s) cells (FIGS. 5B and C, respectively). […] Inhibition of the viral replication was observed under these conditions. Vimentin or keratin-10 proteins were identified at IFs by immunomicroscopy.
IFs structure was analyzed by transmission electron microscopy, following the methodology described in Example 3.
IFs structures were analyzed by transmission electron microscopy, following the methodology described in Example 3. […]

The test system of data set [5] is HIV-2 CBL-20 strain. The experiment in a line: HIV-2 replication in pre-stimulated PBMCs, p24. In kind it is cell-based. The following applies: 7 days. Here is the method: PBMCs were isolated from whole blood of healthy individuals by using Ficoll density gradients. […] Cells were subsequently maintained in PHA-free medium and seeded at 150 000 cells per well in 96-well plates. After 24 h, peptides were added at different concentrations and the cultures were infected with the CBL-20 HIV-2 strain. The cultures were kept for 7 days, being changed every 3 days the medium and the peptides added. Cultures were harvested and supernatants collected to evaluate the presence of the p24 viral protein.

In data set [6] the test system is HIV-1. Conditions: 150 mg per day, 6 months follow-up; two of eight patients (both formulations pooled).
The subject of data set [7] is MT4 cells. In words: Cellular penetration of peptides by flow cytometry. In kind it is cell-based, human. The following applies: 5-40 μM, 15, 30 and 60 min. Here is the method:
HeLa CD4+ cells were seeded in RPMI medium supplemented at 10% FBS and incubated until reaching 60% confluence of the monolayer. MT4 cells were seeded at 50 000 cells per well in RPMI medium at 10% FBS. Peptides identified as SEQ ID No. 1 and SEQ ID No. 3 were resuspended in injection water and evaluated at 5, 10, and 40 μM concentrations. Peptides were incubated for […] at 37° C. under a 5% CO2 atmosphere, and penetration was evaluated after 15, 30 and 60 min. After each period of time, cells were harvested and immediately analyzed by flow cytometry. Three replicates were analyzed per experimental variant.
(In flow cytometry, cells or beads pass a laser one at a time.)

Data set [8] concerns the target T1, vimentin (Homo sapiens, UniProt P08670).
T1 construct: these proteins are endogenous cellular proteins rather than viral; endogenous in cells; host or cells: MT4 cell line (untransduced, shRNA-transduced MT4vim(s), or peptide-treated)
In words: Western blot of vimentin in MT4 cells incubated with peptides. In kind it is cell-based. Conditions: 50 μM peptide, 24 h. The procedure:
The MT4 cell line was incubated at 50 μM of each peptide for 24 h. The vimentin protein was detected by the western blot technique. Cellular extracts were resuspended in 1% sodium dodecyl sulphate (SDS) and applied in a 10% polyacrylamide gel, being further transferred to a Hybond-P […] membrane. For immunoidentification purposes, anti-vimentin and anti-β actin (as control) antibodies were used. An anti-mouse IgG antibody-peroxidase conjugate was used as secondary antibody. The activity of the peroxidase enzyme was visualized by using diaminobenzidine in the presence of hydrogen peroxide and PBS.
In general terms: Immunoblotting shows a protein as a band on a membrane.

No end group written: not given here.

T1 sequence (P08670 whole entry): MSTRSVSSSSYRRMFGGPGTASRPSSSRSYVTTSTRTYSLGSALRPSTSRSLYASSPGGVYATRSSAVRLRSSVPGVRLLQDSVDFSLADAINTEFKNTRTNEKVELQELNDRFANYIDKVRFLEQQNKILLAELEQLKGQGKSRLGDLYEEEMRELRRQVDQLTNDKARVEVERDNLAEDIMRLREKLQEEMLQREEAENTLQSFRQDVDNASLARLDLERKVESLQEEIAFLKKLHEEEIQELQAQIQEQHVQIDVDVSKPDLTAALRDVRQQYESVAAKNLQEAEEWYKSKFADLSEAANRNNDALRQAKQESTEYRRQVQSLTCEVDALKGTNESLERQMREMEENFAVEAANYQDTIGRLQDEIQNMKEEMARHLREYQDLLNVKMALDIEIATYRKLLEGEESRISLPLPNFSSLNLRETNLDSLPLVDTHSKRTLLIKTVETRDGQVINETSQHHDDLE

In the case of `CCCCC/C=C/C=C1/C(=O)C=C[C@@H]1C/C=C\CCCC(=O)O` [Peptide 15d-PGJ2, prostaglandin cyclopentane 15 deoxy-Δ-^12,14-PGJ2], the “% of HIV-1 inhibition” value in data set [1] is listed as 80.1%. Moreover, the HIV replication result in data set [2] is on record as “inhibits the HIV replication in vitro”. The binding to vimentin result in data set [3] was “binds to the vimentin protein”.

As to DMEIATYRTLLEGEESRM [Peptide 2], in data set [1], the “% of HIV-1 inhibition” value is on record as 81.1%. Further, the IFs structure result in data set [4] is recorded as “shortened”. Also, the HIV-2 replication entry in data set [5] was “inhibited HIV-2 replication in a dose-dependent manner”. In data set [6], the “viral load after treatment” value was “undetectable”.

Take KVELQELNDRFANYIDKVRF [Peptide 3]: the “% of HIV-1 inhibition” value in data set [1] was 85.3%.

RVTQMNLNDRLASLYDKV [Peptide 1]: the penetration into cells entry in data set [7] is “able to penetrate by their own into the MT4 cells”. Also, in data set [1], the “% of HIV-1 inhibition” value is 89.3%.

In the case of “RVTQMNLNDRLASLYDKVHYRIKPTFRRLKWKYKGKFW [Peptide 9]”, the “% of HIV-1 inhibition” value in data set [1] came out at 81.3%. The vimentin band intensity result in data set [8] is recorded as “decreased intensity”. Further, in data set [5], the HIV-2 replication result is “inhibited HIV-2 replication in a dose-dependent manner”.

As for “RVTQMNLNDRLASLYDKVRALEESNYELEGKIKEW [Peptide 8]”, the “% of HIV-1 inhibition” value in data set [1] was found to be 86.7%. Moreover, the vimentin band intensity entry in data set [8] was “decreased intensity”. Also, the HIV-2 replication entry in data set [5] is on record as “inhibited HIV-2 replication in a dose-dependent manner”.

These data come from patent US9205128B2, “Method for inhibiting HIV replication in mammal and human cells” (priority 2010, dated 2015).
